Experimental data reported in patent US20260256792A1, “TREATMENT OF CHRONIC SPONTANEOUS URTICARIA BY ADMINISTERING (R)-2-[3-[4-AMINO-3-(2-FLUORO-4-PHENOXY-PHENYL)PYRAZOLO[3,4-D]PYRIMIDIN-1-YL]PIPERIDINE-1-CARBONYL]-4-METHYL-4-[4-(OXETAN-3-YL)PIPERAZIN-1-YL]PENT-2-ENENITRILE” (priority 2023, published 2026).

System: angioedema in CSU patients
Assay: Phase 2 CSU study: angioedema activity score over 7 days (AAS7)
Type: in vivo, human
Settings: 400 mg QPM; for AAS7 = 0, Non-responder n (%) / AAS7 = 0, OR (95% CI) for rilzabrutinib vs. placebo / AAS7 = 0, RRD (%) for rilzabrutinib vs. placebo (95% CI) / AAS7 Post-baseline Mean (SD) / Participants with AAS7 = 0, Responder n (%) / AAS7 % Change difference for rilzabrutinib vs. placebo LS Mean (95% CI) / AAS7 % Change from baseline LS Mean (SE) / AAS7 Change difference for rilzabrutinib vs. placebo LS Mean (95% CI) / AAS7 Change from baseline LS Mean (SE): angioedema at baseline; for Non-responder n (%), AAS7 = 0 / OR (95% CI) for rilzabrutinib vs. placebo, AAS7 = 0 / RRD (%) for rilzabrutinib vs. placebo (95% CI), AAS7 = 0 / Responder n (%), AAS7 = 0: outlier removed
Text: The study comprises a 12 week, randomized, double-blind, placebo-controlled, multi-center, dose-ranging efficacy and safety phase, followed by a 40 week open label extension (OLE) phase (see FIG. 1). The study consists of three phases and an optional OLE phase. […] The weekly angioedema activity score (AAS7) was proposed as a tertiary endpoint. […] Patients were to complete the AAS using the e-diary. The e-diary was to be used once daily on the same time of each day recording of participant's answers to the angioedema activity score over 7 days (AAS7) questionnaire.

CC(C)(C=C(C#N)C(=O)N1CCC[C@@H](n2nc(-c3ccc(Oc4ccccc4)cc3F)c3c(N)ncnc32)C1)N1CCN(C2COC2)CC1 [rilzabrutinib, (R)-2-[3-[4-amino-3-(2-fluoro-4-phenoxy-phenyl)pyrazolo[3,4-d]pyrimidin-1-yl]piperidine-1-carbonyl]-4-methyl-4-[4-(oxetan-3-yl)piperazin-1-yl]pent-2-enenitrile]
AAS7 = 0, Non-responder n (%) (Week 4, omalizumab-naïve): 21 (77.8) n (%)
AAS7 = 0, OR (95% CI) for rilzabrutinib vs. placebo (Week 4, omalizumab-naïve): 0.869
AAS7 = 0, RRD (%) for rilzabrutinib vs. placebo (95% CI) (Week 4, omalizumab-naïve): −2.4 %
AAS7 Post-baseline Mean (SD) (Week 4, omalizumab-naïve): 29.55 (20.68)
Participants with AAS7 = 0, Responder n (%) (Week 4, omalizumab-naïve): 6 (22.2) n (%)
AAS7 % Change difference for rilzabrutinib vs. placebo LS Mean (95% CI) (Week 5, ITT): −0.88 (−26.37, 24.61) %
AAS7 % Change from baseline LS Mean (SE) (Week 5, ITT): −54.71 (9.56) %
AAS7 Change difference for rilzabrutinib vs. placebo LS Mean (95% CI) (Week 5, ITT): 1.56 (−9.31, 12.42)
AAS7 Change from baseline LS Mean (SE) (Week 5, ITT): −28.04 (4.08)
AAS7 Post-baseline Mean (SD) (Week 5, ITT): 25.01 (22.48)
Non-responder n (%), AAS7 = 0 (Week 5, omalizumab-naïve): 21 (56.8) n (%)
OR (95% CI) for rilzabrutinib vs. placebo, AAS7 = 0 (Week 5, omalizumab-naïve): 0.872
RRD (%) for rilzabrutinib vs. placebo (95% CI), AAS7 = 0 (Week 5, omalizumab-naïve): −3.4 %
Responder n (%), AAS7 = 0 (Week 5, omalizumab-naïve): 16 (43.2) n (%)
AAS7 % Change difference for rilzabrutinib vs. placebo LS Mean (95% CI) (Week 5, omalizumab-naïve): −1.04 (−28.01, 25.93) %
AAS7 % Change from baseline LS Mean (SE) (Week 5, omalizumab-naïve): −55.66 (9.83) %
AAS7 = 0, Non-responder n (%) (Week 5, omalizumab-naïve): 19 (70.4) n (%)
AAS7 = 0, OR (95% CI) for rilzabrutinib vs. placebo (Week 5, omalizumab-naïve): 1.079
AAS7 = 0, RRD (%) for rilzabrutinib vs. placebo (95% CI) (Week 5, omalizumab-naïve): 1.6 %
AAS7 Post-baseline Mean (SD) (Week 5, omalizumab-naïve): 24.55 (22.80)
Participants with AAS7 = 0, Responder n (%) (Week 5, omalizumab-naïve): 8 (29.6) n (%)
AAS7 % Change difference for rilzabrutinib vs. placebo LS Mean (95% CI) (Week 6, ITT): 1.19 (−25.36, 27.75) %
AAS7 % Change from baseline LS Mean (SE) (Week 6, ITT): −46.12 (9.92) %
AAS7 Change from baseline LS Mean (SE) (Week 6, ITT): −25.61 (4.32)
AAS7 Post-baseline Mean (SD) (Week 6, ITT): 27.97 (22.56)
Non-responder n (%), AAS7 = 0 (Week 6, omalizumab-naïve): 24 (64.9) n (%)
OR (95% CI) for rilzabrutinib vs. placebo, AAS7 = 0 (Week 6, omalizumab-naïve): 0.606
RRD (%) for rilzabrutinib vs. placebo (95% CI), AAS7 = 0 (Week 6, omalizumab-naïve): −11.4 %
Responder n (%), AAS7 = 0 (Week 6, omalizumab-naïve): 13 (35.1) n (%)
AAS7 % Change difference for rilzabrutinib vs. placebo LS Mean (95% CI) (Week 6, omalizumab-naïve): 2.62 (−26.14, 31.38) %
AAS7 = 0, Non-responder n (%) (Week 6, omalizumab-naïve): 23 (85.2) n (%)
AAS7 = 0, OR (95% CI) for rilzabrutinib vs. placebo (Week 6, omalizumab-naïve): 0.437
AAS7 = 0, RRD (%) for rilzabrutinib vs. placebo (95% CI) (Week 6, omalizumab-naïve): −13.0 %
AAS7 Post-baseline Mean (SD) (Week 6, omalizumab-naïve): 28.26 (23.00)
Participants with AAS7 = 0, Responder n (%) (Week 6, omalizumab-naïve): 4 (14.8) n (%)
AAS7 % Change difference for rilzabrutinib vs. placebo LS Mean (95% CI) (Week 7, ITT): 16.32 (−13.52, 46.16) %
AAS7 Change difference for rilzabrutinib vs. placebo LS Mean (95% CI) (Week 7, ITT): 4.35 (−7.06, 15.76)
AAS7 Change from baseline LS Mean (SE) (Week 7, ITT): −22.95 (4.29)
AAS7 Post-baseline Mean (SD) (Week 7, ITT): 31.05 (21.43)
Non-responder n (%), AAS7 = 0 (Week 7, omalizumab-naïve): 24 (64.9) n (%)
OR (95% CI) for rilzabrutinib vs. placebo, AAS7 = 0 (Week 7, omalizumab-naïve): 0.611
RRD (%) for rilzabrutinib vs. placebo (95% CI), AAS7 = 0 (Week 7, omalizumab-naïve): −11.8 %
Responder n (%), AAS7 = 0 (Week 7, omalizumab-naïve): 13 (35.1) n (%)
AAS7 % Change difference for rilzabrutinib vs. placebo LS Mean (95% CI) (Week 7, omalizumab-naïve): 19.61 (−12.44, 51.65) %
AAS7 = 0, OR (95% CI) for rilzabrutinib vs. placebo (Week 7, omalizumab-naïve): 0.200
AAS7 = 0, RRD (%) for rilzabrutinib vs. placebo (95% CI) (Week 7, omalizumab-naïve): −23.0 %
AAS7 Post-baseline Mean (SD) (Week 7, omalizumab-naïve): 31.88 (21.51)
AAS7 % Change difference for rilzabrutinib vs. placebo LS Mean (95% CI) (Week 8, ITT): −2.51 (−32.23, 27.22) %
AAS7 Change difference for rilzabrutinib vs. placebo LS Mean (95% CI) (Week 8, ITT): −1.74 (−12.55, 9.06)
AAS7 Change from baseline LS Mean (SE) (Week 8, ITT): −30.07 (4.07)
AAS7 Post-baseline Mean (SD) (Week 8, ITT): 24.69 (22.82)
Non-responder n (%), AAS7 = 0 (Week 8, omalizumab-naïve): 20 (54.1) n (%)
OR (95% CI) for rilzabrutinib vs. placebo, AAS7 = 0 (Week 8, omalizumab-naïve): 1.185
RRD (%) for rilzabrutinib vs. placebo (95% CI), AAS7 = 0 (Week 8, omalizumab-naïve): 4.2 %
Responder n (%), AAS7 = 0 (Week 8, omalizumab-naïve): 17 (45.9) n (%)
AAS7 % Change difference for rilzabrutinib vs. placebo LS Mean (95% CI) (Week 8, omalizumab-naïve): −4.14 (−36.36, 28.09) %
AAS7 = 0, Non-responder n (%) (Week 8, omalizumab-naïve): 20 (74.1) n (%)
AAS7 = 0, OR (95% CI) for rilzabrutinib vs. placebo (Week 8, omalizumab-naïve): 0.929
AAS7 = 0, RRD (%) for rilzabrutinib vs. placebo (95% CI) (Week 8, omalizumab-naïve): −1.3 %
